# Data from PubChem BioAssay (NCI).
#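 48-hour exposure; five concentrations; linearly interpolated endpoints. At the GI50, growth is halved. Definition used: TGI = concentration required for complete inhibition of growth.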
# Tests used:
# Test in all cases: inhibition of tumour cell growth, NCI panel, 48 h
# MCF7 breast = system: MCF7 breast
# MOLT-4 leukemia = system: MOLT-4 leukemia
# SF-268 CNS = system: SF-268 CNS
# NCI-H460 lung = system: NCI-H460 lung
# HCT-116 colon = system: HCT-116 colon
# HCC-2998 colon = system: HCC-2998 colon
# OVCAR-8 ovarian = system: OVCAR-8 ovarian
# NCI-H23 lung = system: NCI-H23 lung
# 786-0 renal = system: 786-0 renal
# SK-MEL-2 melanoma = system: SK-MEL-2 melanoma
Structure (SMILES),GI50 (MCF7 breast),TGI (MCF7 breast),GI50 (MOLT-4 leukemia),TGI (MOLT-4 leukemia),GI50 (SF-268 CNS),TGI (SF-268 CNS),GI50 (NCI-H460 lung),TGI (NCI-H460 lung),GI50 (HCT-116 colon),TGI (HCT-116 colon),GI50 (HCC-2998 colon),TGI (HCC-2998 colon),GI50 (OVCAR-8 ovarian),TGI (OVCAR-8 ovarian),GI50 (NCI-H23 lung),TGI (NCI-H23 lung),GI50 (786-0 renal),TGI (786-0 renal),GI50 (SK-MEL-2 melanoma),TGI (SK-MEL-2 melanoma)
CCCCCCCCCCCCC(O)c1ccco1 (stereo not drawn),29.4 µM,> 100 µM,25.4 µM,52 µM,19.1 µM,46 µM,29.5 µM,> 100 µM,22.2 µM,52.1 µM,18.4 µM,32.3 µM,25.6 µM,52.9 µM,16.2 µM,30.4 µM,19.7 µM,36.6 µM,22 µM,46 µM
Cn1cc(C2=C(c3c[nH]c4ccccc34)C(=O)NC2=O)c2ccccc21,0.278 µM,> 25 µM,0.458 µM,–,1.1 µM,> 25 µM,0.732 µM,> 25 µM,1.51 µM,> 25 µM,6.66 µM,> 25 µM,1.51 µM,> 25 µM,0.218 µM,> 25 µM,0.446 µM,> 25 µM,1.09 µM,> 25 µM
CS(=O)(=O)OCCCNCCCOS(C)(=O)=O,–,5320 µM,–,2340 µM,–,7620 µM,–,2450 µM,–,5670 µM,–,3670 µM,–,6630 µM,–,5630 µM,–,6310 µM,–,3690 µM
C#C[C@@]1(O)[C@@H](CO)O[C@@H](n2cc(I)c3c(N)ncnc32)[C@@H]1O,< 0.0117 µM,> 100 µM,0.0489 µM,0.831 µM,1.1 µM,49.9 µM,0.0895 µM,1.91 µM,0.0434 µM,> 100 µM,0.243 µM,3.01 µM,0.0456 µM,–,0.327 µM,6.48 µM,0.334 µM,3.24 µM,0.239 µM,1.76 µM
CS(=O)(=O)Nc1cccc(-c2ccc3ncnc(Nc4ccc(F)c(Cl)c4)c3c2)c1,1.56 µM,6.93 µM,1.8 µM,12.4 µM,1.97 µM,9.14 µM,2.15 µM,5.6 µM,1.59 µM,3.29 µM,1.94 µM,3.84 µM,2.23 µM,8.53 µM,2.15 µM,6.57 µM,1.71 µM,3.76 µM,1.98 µM,4.15 µM
